Measurements as given in US12702676B2, “Fosfomycin dosing regimens” (priority 2017, dated 2026).
Values after ≈ are worked out from the molar mass of the structure shown. Where two headings read alike, the source gives them in different places.

How the values were obtained:
[1] = Population PK analysis of ZTI-01, pooled Phase 1 healthy subjects and Phase 2/3 cUTI/AP patients; type: in vivo, human; settings: for Baseline CLcr50 / Hill coefficient: CL model
Source text: Methods: Two clinical studies have been conducted as part of the development of ZTI-01: a Phase 1 study in healthy subjects (ZTI-01-NIH13-0064) and a Phase 2/3 study in hospitalized patients with complicated urinary tract infections (ZTI-01-200). A PPK model, originally developed using Phase 1 data and an empirical relationship between FOS clearance (CLt) and creatinine clearance (CLcr) [Microbe 2017 Abstr. P1134], was refined using pooled data from healthy subjects and patients with cUTI, including acute pyelonephritis.
The PPK model was developed in NONMEM 7.2. In the Phase 1 study, 28 healthy subjects who received ZTI-01 as single (1 and 8 g infused over 1 hour) IV doses in crossover fashion provided plasma and urine samples for FOS concentration determination over 24 hours. Patients from the Phase 2/3 study (ZEUS, NCT02753946) received ZTI-01 at 6 g every 8 hours, with dosage adjustment for patients with renal impairment (adjusted for CLcr≤50 mL/min). Blood samples for PK (n=5 per patient) were collected on Day 1 and on either Days 3, 4, or 5. Model development involved refinement of the previous CLt:CLcr relationship using the pooled data and a full covariate analysis to identify other patient descriptors associated with the interindividual variability (IIV) in FOS PK. Model qualification included standard goodness-of-fit metrics and visual predictive check plots.
For the PPK model refinement, previous structural population PK model was fit to the pooled Phase 1 and 2/3 data. Covariate analyses were conducted using forward selection and backward elimination. The final model was qualified using visual predictive checks and non-parametric bootstrap procedures. Individual, post-hoc fosfomycin exposures were calculated for each patient using predicted plasma fosfomycin concentration-time data for the first 48 hours of therapy.

[2] = test system: Raoultella ornithinolytica; assay: Case treated with the dosing scheme of the invention; type: in vivo; settings: one case
Enterobacteriaceae [3] = assay: Non-clinical total-drug % T>RIC targets for efficacy
Source text: Emphasis was placed on the assessment of PK-PD target attainment results for AUC:MIC ratio and % T>RIC targets associated with net bacterial stasis.

[4] = test system: Enterobacteriaceae isolates; settings: 1,021 Enterobacteriaceae isolates collected from US medical centers; cited from earlier work
[5] = test system: acute pyelonephritis pathogens; settings: Ode et al. study; dosing regimen 8 g bid; cited from earlier work
[6] = test system: Acinetobacter baumannii-calcoaceticus complex; assay: Case treated with the dosing regimen of the invention; type: in vivo; settings: one case
Source text: In addition to the above list, it was also observed that the dosing regimen of the present invention provided beneficial results for two uncommon and rarely treated strains. In one case, the dosing regimen of the present invention was used to administer appropriate dosages of fosfomycin, resulting in the eradication of the often resistant, Gram negative Acinetobacter baumannii-calcoaceticus complex.

Enterobacteriaceae [7] = settings: cited from earlier work; for Total-drug AUC:MIC ratio target: Enterobacteriaceae; for Median total-drug AUC:MIC ratio target: neutropenic murine-thigh infection model (Lepak et al.)
[8] = Pharmacokinetics in specific populations (hemodialysis, hepatic, demographics); type: in vivo, human
[9] = final population PK model estimate
[10] = 1-log10 CFU reduction from baseline

With `C[C@@H]1O[C@@H]1P(=O)(O)O` [fosfomycin] the “Baseline CLcr50” value ([1]; bootstrap mean (N = 200)) was 66.3 mL/min/1.73 m^2, the Hill coefficient ([1]; bootstrap mean (N = 200)) was 2.6 and the “Baseline CLcr50” value ([1]; bootstrap median (N = 200)) was 65.6 mL/min/1.73 m^2. The Hill coefficient ([1]; bootstrap median (N = 200)) was 2.59, the “Baseline CLcr50” value [1, 9] was 65 mL/min/1.73 m^2 and the Hill coefficient [1, 9] was 2.56. For the same molecule, the “CLd1 Coefficient” value ([1]; bootstrap mean (N = 200)) was 4.36 L/h, the “CLd1 Proportional increase for AP and cUTI patients” value (“CLd1 Proportional increase” for short) ([1]; bootstrap mean (N = 200)) was 1.28 and the “CLd2 Coefficient” value ([1]; bootstrap mean (N = 200)) was 0.351 L/h. The CLe maximum ([1]; bootstrap mean (N = 200)) was 9.02 L/h, the “Covariance between CL and Vc” value ([1]; bootstrap mean (N = 200)) was 0.0707 and the “Covariance between CL and Vp1” value ([1]; bootstrap mean (N = 200)) was 0.134. The “Covariance between CLd1 and Vp1” value ([1]; bootstrap mean (N = 200)) was 0.173, the “Plasma Residual variability (σ^2) CCV component” value (“Plasma Residual variability” for short) ([1]; bootstrap mean (N = 200)) was 0.0196 and the “Urine Residual variability (σ^2) CCV component” value (“Urine Residual variability” below) ([1]; bootstrap mean (N = 200)) was 0.0793. The “Vc Coefficient” value ([1]; bootstrap mean (N = 200)) was 17.7 L, the Vc-BSA power ([1]; bootstrap mean (N = 200)) was 1.72 and the Vp1-BSA power ([1]; bootstrap mean (N = 200)) was 2.73. For the same molecule, the “Vp1 Coefficient” value ([1]; bootstrap mean (N = 200)) was 6.11 L, the “Vp1 Proportional increase for AP and cUTI patients” value (from here on “Vp1 Proportional increase”) ([1]; bootstrap mean (N = 200)) was 0.721 and the “Vp2 Coefficient” value ([1]; bootstrap mean (N = 200)) was 1.74 L. The “ω^2 for Vc” value ([1]; bootstrap mean (N = 200)) was 0.174, the “ω^2 for Vp1” value ([1]; bootstrap mean (N = 200)) was 0.516 and the “ω^2 tor CLd1” value ([1]; bootstrap mean (N = 200)) was 0.203. The “CLd1 Coefficient” value ([1]; bootstrap median (N = 200)) was 4.2 L/h, the “CLd1 Proportional increase” value ([1]; bootstrap median (N = 200)) was 1.15 and the “CLd2 Coefficient” value ([1]; bootstrap median (N = 200)) was 0.346 L/h. The CLe maximum ([1]; bootstrap median (N = 200)) was 8.87 L/h, the “Covariance between CL and Vc” value ([1]; bootstrap median (N = 200)) was 0.0704 and the “Covariance between CL and Vp1” value ([1]; bootstrap median (N = 200)) was 0.131. For the same molecule, the “Covariance between CLd1 and Vp1” value ([1]; bootstrap median (N = 200)) was 0.166, the “Plasma Residual variability” value ([1]; bootstrap median (N = 200)) was 0.0194 and the “Urine Residual variability” value ([1]; bootstrap median (N = 200)) was 0.079. For the same molecule, the “Vc Coefficient” value ([1]; bootstrap median (N = 200)) was 17.7 L, the Vc-BSA power ([1]; bootstrap median (N = 200)) was 1.7 and the Vp1-BSA power ([1]; bootstrap median (N = 200)) was 2.73. The “Vp1 Coefficient” value ([1]; bootstrap median (N = 200)) was 6.03 L, the “Vp1 Proportional increase” value ([1]; bootstrap median (N = 200)) was 0.706 and the “Vp2 Coefficient” value ([1]; bootstrap median (N = 200)) was 1.72 L. For the same molecule, the “ω^2 for Vc” value ([1]; bootstrap median (N = 200)) was 0.172, the “ω^2 for Vp1” value ([1]; bootstrap median (N = 200)) was 0.508 and the “ω^2 tor CLd1” value ([1]; bootstrap median (N = 200)) was 0.199. For the same molecule, the “CLd1 Coefficient” value [1, 9] was 4.15 L/h, the “CLd1 Proportional increase” value [1, 9] was 1.24 and the “CLd2 Coefficient” value [1, 9] was 0.349 L/h. For the same molecule, the CLe maximum [1, 9] was 8.87 L/h, the “Covariance between CL and Vc” value [1, 9] was 0.07213 and the “Covariance between CL and Vp1” value [1, 9] was 0.1296. For the same molecule, the “Covariance between CLd1 and Vp1” value [1, 9] was 0.1853, the “Plasma Residual variability” value [1, 9] was 0.0195 and the “Urine Residual variability” value [1, 9] was 0.0795. The “Vc Coefficient” value [1, 9] was 17.6 L, the Vc-BSA power [1, 9] was 1.76 and the Vp1-BSA power [1, 9] was 2.72. The “Vp1 Coefficient” value [1, 9] was 5.99 L, the “Vp1 Proportional increase” value [1, 9] was 0.729 and the “Vp2 Coefficient” value [1, 9] was 1.73 L. For the same molecule, the “ω^2 for Vc” value [1, 9] was 0.175, the “ω^2 for Vp1” value [1, 9] was 0.502 and the “ω^2 tor CLd1” value [1, 9] was 0.215. The Cmin ([1]; geometric mean, infected Phase 2/3 patients (n = 214), ZTI-01-200, population PK model fit) was 30.0 µg/mL, the Cmax ([1]; human, in vivo, 6 g, geometric mean, infected Phase 2/3 patients (n = 214), ZTI-01-200, population PK model fit) was 364 µg/mL and the clearance ([1]; human, in vivo, 6 g, geometric mean, infected Phase 2/3 patients (n = 214), ZTI-01-200, population PK model fit, read-out: CL (converted)) was 99.7 mL/min. The Vd ([1]; human, in vivo, 6 g, geometric mean, infected Phase 2/3 patients (n = 214), ZTI-01-200, population PK model fit, read-out: VSS) was 30.9 L, the half-life ([1]; human, in vivo, 6 g, geometric mean, infected Phase 2/3 patients (n = 214), ZTI-01-200, population PK model fit, read-out: t1/2, α (converted)) was 0.402 h and the half-life ([1]; human, in vivo, 6 g, geometric mean, infected Phase 2/3 patients (n = 214), ZTI-01-200, population PK model fit, read-out: t1/2, β (converted)) was 2.67 h. It also gave a half-life ([1]; human, in vivo, 6 g, geometric mean, infected Phase 2/3 patients (n = 214), ZTI-01-200, population PK model fit, read-out: t1/2, γ (converted)) of 4.99 h, an AUC(0-t) ([1]; human, in vivo, 6 g, geometric mean, infected Phase 2/3 patients (n = 214), ZTI-01-200, doses by baseline renal function, population PK model fit, read-out: AUC0-24) of 2490 µg·h/mL and a clearance ([1]; human, in vivo, bootstrap mean (N = 200), read-out: Non-renal CL (converted)) of 27 mL/min. The clearance ([1]; human, in vivo, bootstrap median (N = 200), read-out: Non-renal CL (converted)) was 27.2 mL/min, the clearance ([1]; human, in vivo, final population PK model estimate, read-out: Non-renal CL (converted)) was 26.8 mL/min and the “outcome against Raoultella ornithinolytica” value [2] was “successfully eradicated”. The “Total-drug % T > RIC target” value (Enterobacteriaceae [3]; [10]) was 20.9%, the “Total-drug % T > RIC target” value (Enterobacteriaceae [3]; 2-log10 CFU reduction from baseline) was 32.8% and the “Total-drug % T > RIC target” value (Enterobacteriaceae [3]; Net bacterial stasis) was 11.9%. For the same molecule, the MIC50 [4] was 4 µg/mL (≈ 29 µM), the MIC90 [4] was 16 µg/mL (≈ 116 µM) and the “effective (patients with AP)” value [5] was 44%. The “outcome against Acinetobacter baumannii-calcoaceticus complex” value [6] was “eradication”, the “Total-drug AUC:MIC ratio target” value (Enterobacteriaceae [7]; [10]) was 41.6 and the “Median total-drug AUC:MIC ratio target” value (Enterobacteriaceae [7]; 1 log10 CFU reduction from baseline) was 41.6. The “Total-drug AUC:MIC ratio target” value (Enterobacteriaceae [7]; Net bacterial stasis) was 19.1, the “Median total-drug AUC:MIC ratio target” value (Enterobacteriaceae [7]; Net bacterial stasis) was 19.1 and the “fosfomycin dose removed by hemodialysis” value ([8]; administered prior to hemodialysis in patients on periodic or chronic hemodialysis) was 61-79%. For the same molecule, the “differences in pharmacokinetics based on sex, body weight/body surface area, race/ethnicity or age” value ([8]; age 18 to 89 years, adjusted for renal function) was “No clinically significant differences” and the “metabolism through the liver” value ([8]; in vivo) was “not metabolized through the liver”.
